What was measured:
Settings in all cases: 72 h
Caco-2 [1] = assay: cell viability relative to DMSO; higher = less toxic
Calu-3 [2] = assay: as above
HepG2 [3] = assay: as above
Vero E6 [4] = assay: as above
Caco-2 [5] = assay: relative viability EC50 (midpoint between 100% and the lowest measured viability); higher = less toxic
Calu-3 [6] = assay: as above
HepG2 [7] = assay: as above
Vero E6 [8] = assay: as above
Caco-2 [9] = assay: drug sensitivity score (DSS) for viability; higher = more toxic; extreme values may be limits of the assay
Calu-3 [10] = assay: as above
HepG2 [11] = assay: as above
Vero E6 [12] = assay: as above
U2OS [13] = assay: cell viability relative to DMSO; higher = less toxic
U2OS [14] = assay: relative viability EC50 (midpoint between 100% and the lowest measured viability); higher = less toxic
U2OS [15] = assay: drug sensitivity score (DSS) for viability; higher = more toxic; extreme values may be limits of the assay

Row | SMILES | cell viability (Caco-2 [1]; 1 nM) | cell viability (Caco-2 [1]; 10 nM) | cell viability (Caco-2 [1]; 100 nM) | cell viability (Caco-2 [1]; 1000 nM) | cell viability (Caco-2 [1]; 10000 nM) | cell viability (Calu-3 [2]; 1 nM) | cell viability (Calu-3 [2]; 10 nM) | cell viability (Calu-3 [2]; 100 nM) | cell viability (Calu-3 [2]; 1000 nM) | cell viability (Calu-3 [2]; 10000 nM) | cell viability (HepG2 [3]; 1 nM) | cell viability (HepG2 [3]; 10 nM) | cell viability (HepG2 [3]; 100 nM) | cell viability (HepG2 [3]; 1000 nM) | cell viability (HepG2 [3]; 10000 nM) | cell viability (Vero E6 [4]; 1 nM) | cell viability (Vero E6 [4]; 10 nM) | cell viability (Vero E6 [4]; 100 nM) | cell viability (Vero E6 [4]; 1000 nM) | cell viability (Vero E6 [4]; 10000 nM) | relative viability EC50 (Caco-2 [5]) | relative viability EC50 (Calu-3 [6]) | relative viability EC50 (HepG2 [7]) | relative viability EC50 (Vero E6 [8]) | drug sensitivity score (Caco-2 [9]) | drug sensitivity score (Calu-3 [10]) | drug sensitivity score (HepG2 [11]) | drug sensitivity score (Vero E6 [12]) | cell viability (U2OS [13]; 1 nM) | cell viability (U2OS [13]; 10 nM) | cell viability (U2OS [13]; 100 nM) | cell viability (U2OS [13]; 1000 nM) | cell viability (U2OS [13]; 10000 nM) | relative viability EC50 (U2OS [14]) | drug sensitivity score (U2OS [15])
1 | CCN(CC)CCOC(=O)C(c1ccccc1)c1ccccc1 [adiphenine] | 105% | 102% | 95.1% | 98.3% | 103% | 109% | 113% | 97% | 104% | 124% | 103% | 109% | 106% | 113% | 99.1% | 111% | 116% | 105% | 107% | 99.2% | > 10 µM | > 10 µM | > 10 µM | > 10 µM | 0 | 0 | 0 | 0 |  |  |  |  |  |  | 
2 | O=c1[nH]cnc2c1cnn2[C@@H]1O[C@H](CO)[C@@H](O)[C@H]1O [allopurinol-riboside] | 97.7% | 98% | 111% | 91.8% | 101% | 102% | 90.7% | 103% | 93.4% | 98.1% |  |  |  |  |  | 102% | 100% | 98.2% | 103% | 102% | > 10 µM | > 10 µM |  | > 10 µM | 0 | 0 |  | 0 |  |  |  |  |  |  | 
3 | C[C@@H](O)[C@H]1C(=O)N2C(C(=O)[O-])=C(SC3Cn4cnc[n+]4C3)[C@H](C)[C@H]12 (some centres not stated) [biapenem] | 86.6% | 104% | 96.3% | 93.3% | 97.3% |  |  |  |  |  | 97.1% | 98% | 93.3% | 90.7% | 95.2% | 98.1% | 100% | 94.7% | 103% | 99.8% | > 10 µM |  | > 10 µM | > 10 µM | 0 |  | 0 | 0 | 98.6% | 104% | 96.3% | 97.1% | 100% | > 10 µM | 0
4 | COc1cc2nccc(Oc3ccc(NC(=O)C4(C(=O)Nc5ccc(F)cc5)CC4)cc3)c2cc1OC [cabozantinib] | 93% | 97.4% | 96.7% | 82% | 35% | 94.2% | 109% | 100% | 88.1% | 39.2% | 107% | 92.6% | 97.1% | 98.9% | 44.4% | 101% | 98% | 97.2% | 99.3% | 48% | 1.47 µM | 1.75 µM | 3.02 µM | 3.07 µM | 6.3 | 5.3 | 3.1 | 2.8 | 103% | 104% | 99% | 98.3% | 50.1% |  | 2.8
5 | CC(C)CCC[C@@H](C)[C@H]1CC[C@H]2[C@@H]3CC=C4C[C@@H](O)CC[C@]4(C)[C@H]3CC[C@]12C [cholesterol] | 89.4% | 92.1% | 102% | 90.4% | 98.9% |  |  |  |  |  | 92.6% | 97.4% | 91.6% | 106% | 104% | 97.1% | 98.2% | 92.2% | 97.6% | 107% | > 10 µM |  | > 10 µM | > 10 µM | 0 |  | 0 | 0 | 102% | 93.3% | 98.2% | 94% | 100% | > 10 µM | 0
6 | O=C(O)c1ccc(-n2nc(-c3ccccc3O)nc2-c2ccccc2O)cc1 [deferasirox] | 110% | 92.5% | 104% | 96% | 58.8% | 99.7% | 100% | 97.4% | 104% | 72.2% | 110% | 93.2% | 106% | 91.6% | 31.3% | 104% | 104% | 106% | 101% | 56.9% |  |  | 2.17 µM |  | 2.7 | 0.9 | 5.2 | 2.1 | 103% | 102% | 99% | 93.5% | 47.1% | 2.16 µM | 3.9
7 | COc1cc2c(cc1OC)C(=O)C(CC1CCN(Cc3ccccc3)CC1)C2 (configuration not stated) [donepezil] | 103% | 102% | 104% | 91.4% | 96.4% | 91.9% | 92.4% | 96% | 92% | 94.1% | 114% | 106% | 98.8% | 102% | 91.2% |  |  |  |  |  | > 10 µM | > 10 µM | > 10 µM | > 10 µM | 0 | 0 | 0 | 0.3 |  |  |  |  |  |  | 
8 | CN1CCc2nc(C(=O)N[C@@H]3C[C@@H](C(=O)N(C)C)CC[C@@H]3NC(=O)C(=O)Nc3ccc(Cl)cn3)sc2C1 [edoxaban] | 92.4% | 102% | 94.4% | 101% | 107% | 97.6% | 96.4% | 92.8% | 98.3% | 105% | 106% | 94.9% | 106% | 96.4% | 101% | 99.5% | 96% | 94.8% | 92.7% | 104% | > 10 µM | > 10 µM | > 10 µM | > 10 µM | 0 | 0 | 0 | 0 |  |  |  |  |  |  | 
9 | CCn1cc(C(=O)O)c(=O)c2cc(F)c(N3CCNCC3)nc21 [enoxacin] | 105% | 105% | 103% | 99.2% | 99.6% | 97.7% | 103% | 106% | 105% | 107% | 105% | 105% | 99.8% | 96% | 97.6% | 101% | 110% | 103% | 103% | 97.6% | > 10 µM | > 10 µM | > 10 µM | > 10 µM | 0 | 0 | 0 | 0 |  |  |  |  |  |  | 
10 | CC(C)(C)c1ccc(CN(Cc2cccc(OCC(=O)O)c2)S(=O)(=O)c2cccnc2)cc1 [evatanepag] | 98.5% | 97.8% | 101% | 102% | 101% | 110% | 101% | 94.2% | 99.7% | 94.9% | 99.1% | 108% | 91.7% | 94.3% | 93.6% | 108% | 104% | 102% | 97.4% | 93.5% | > 10 µM | > 10 µM | > 10 µM | > 10 µM | 0 | 0 | 0 | 0 |  |  |  |  |  |  | 
11 | CC(C)n1c(/C=C/[C@@H](O)C[C@@H](O)CC(=O)O)c(-c2ccc(F)cc2)c2ccccc21 [fluvastatin] | 92.4% | 103% | 101% | 89.1% | 80% | 99% | 96.7% | 96.6% | 105% | 65.4% | 97% | 104% | 99.2% | 90.7% | 71.3% | 100% | 100% | 103% | 91.2% | 37.5% | > 10 µM |  |  | 2.05 µM | 1.7 | 1.3 | 2.5 | 4.9 | 99.6% | 109% | 95.7% | 101% | 45.1% | 3.24 µM | 2.9
12 | NS(=O)(=O)c1cc(C(=O)O)c(NCc2ccco2)cc1Cl [furosemide] | 104% | 95.8% | 102% | 106% | 112% | 98.1% | 95.3% | 103% | 81.5% | 104% | 121% | 87.5% | 113% | 103% | 120% | 99.8% | 90.5% | 97.1% | 89.6% | 105% | > 10 µM | > 10 µM | > 10 µM | > 10 µM | 0 | 0 | 0 | 0 |  |  |  |  |  |  | 
13 | CN(C)C(=O)c1cc2cnc(Nc3ccc(N4CCNCC4)cn3)nc2n1C1CCCC1 [ribociclib] | 92.1% | 95.9% | 96.1% | 95% | 90.3% | 99.7% | 90.3% | 94% | 95.3% | 73.1% | 95.1% | 101% | 87.5% | 78% | 71.8% | 95.5% | 98.8% | 98% | 94.4% | 84% | > 10 µM |  |  | > 10 µM | 0 | 1.8 | 4.5 | 0.6 | 92.8% | 96.9% | 92.7% | 98.4% | 90.4% | > 10 µM | 0
14 | COc1c(O[C@@H]2O[C@H](CO)[C@@H](O)[C@H](O)[C@H]2O)cc2c(c1OC)-c1ccc(SC)c(=O)cc1[C@@H](NC(C)=O)CC2 [thiocolchicoside] | 96.1% | 96.4% | 82.7% | 102% | 94.5% | 102% | 93.2% | 98.7% | 102% | 97.8% | 97% | 100% | 91.4% | 97.2% | 90.9% | 102% | 104% | 99.1% | 106% | 103% | > 10 µM | > 10 µM | > 10 µM | > 10 µM | 0 | 0 | 0 | 0 |  |  |  |  |  |  | 
15 | Cc1cccc(C)c1NC1=NCCCS1 [xylazine] | 105% | 101% | 98.7% | 104% | 92.1% | 94.4% | 102% | 92.1% | 114% | 90.2% |  |  |  |  |  | 113% | 105% | 106% | 102% | 98.5% | > 10 µM | > 10 µM |  | > 10 µM | 0 | 0 |  | 0 |  |  |  |  |  |  | 
16 | COC(=O)[C@@H]1[C@H]2C[C@H]3c4[nH]c5ccccc5c4CCN3C[C@@H]2CC[C@@H]1O [yohimbine] |  |  |  |  |  | 103% | 100% | 113% | 108% | 96.9% | 110% | 113% | 110% | 94.5% | 87.4% | 110% | 105% | 101% | 101% | 98.6% |  | > 10 µM | > 10 µM | > 10 µM |  | 0 | 0.3 | 0 |  |  |  |  |  |  | 
